Assay results published in BigSolDB 2.1.

O=S(=O)([O-])c1cccc2c(S(=O)(=O)[O-])cccc12.[Na+].[Na+]
solubility (mole fraction)
Details	in acetone	in ethanol	in isopropanol	in methanol	in water
283.15 K	5.45e-05	0.000107	2.55e-05	0.00017	0.00572
293.15 K	5.92e-05	0.00011	5.68e-05	0.000221	0.00664
303.15 K	7.41e-05	0.00011	6.45e-05	0.000251	0.00784
313.15 K	9.49e-05	0.000147	8.74e-05	0.00027	0.00919
323.15 K	9.73e-05	0.000184	9.19e-05	0.00028	0.0106
